According to PMC4547362 (Molecular cancer therapeutics, 2015):
Where two headings read alike, the source gives them in different places.

Tests used:
Stat5a/b = Stat5a/b activation and transcriptional activity, side-by-side with IST5-002; type: cell-based
Stat3 = Stat3 (Homo sapiens, UniProt P40763); assay: IL-6-induced Stat3 nuclear translocation in DU145 cells, immunofluorescence; type: cell-based; conditions: IL-6 5 nM, IST5-002 even at 50 μM
Stat5 = conditions: cited from earlier work
Stat1 = conditions: cited from earlier work
[1] = side-by-side with IST5-002, data not shown

Sequence of Stat3 (P40763 whole entry): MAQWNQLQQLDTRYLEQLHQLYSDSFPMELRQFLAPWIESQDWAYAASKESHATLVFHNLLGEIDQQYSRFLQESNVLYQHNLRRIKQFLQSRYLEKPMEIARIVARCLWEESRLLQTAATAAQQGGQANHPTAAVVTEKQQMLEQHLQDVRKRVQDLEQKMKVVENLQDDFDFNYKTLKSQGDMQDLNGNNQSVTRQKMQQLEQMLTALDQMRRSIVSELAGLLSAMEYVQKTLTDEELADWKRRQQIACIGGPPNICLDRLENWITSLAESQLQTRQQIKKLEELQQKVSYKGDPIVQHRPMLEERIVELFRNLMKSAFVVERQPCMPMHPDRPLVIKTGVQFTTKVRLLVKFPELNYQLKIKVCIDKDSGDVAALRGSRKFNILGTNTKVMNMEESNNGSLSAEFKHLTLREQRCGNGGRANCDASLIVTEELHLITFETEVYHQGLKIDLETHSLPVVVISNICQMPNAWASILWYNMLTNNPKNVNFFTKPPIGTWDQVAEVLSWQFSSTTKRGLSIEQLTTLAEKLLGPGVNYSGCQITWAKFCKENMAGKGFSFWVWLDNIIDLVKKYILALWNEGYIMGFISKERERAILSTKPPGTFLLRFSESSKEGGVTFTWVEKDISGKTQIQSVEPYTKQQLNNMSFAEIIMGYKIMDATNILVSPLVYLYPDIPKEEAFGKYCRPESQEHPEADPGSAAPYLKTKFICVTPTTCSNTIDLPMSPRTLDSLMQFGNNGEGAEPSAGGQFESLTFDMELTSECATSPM

In the case of Nc1ncnc2c1ncn2[C@@H]1O[C@H](COP(=O)(O)O)[C@@H](O)[C@H]1O [AMP], the “effect on Stat5a/b activation and transcriptional activity” value (“effect” for short) (Stat5a/b; [1]) is reported as “no effect”.
With Cc1cc(Nc2nc(N[C@@H](C)c3ncc(F)cn3)ncc2Cl)n[nH]1 [AZD1480, reference compound] the Stat3 nuclear translocation (Stat3) was “effectively suppressed”.
For Nc1nc(F)nc2c1ncn2[C@@H]1O[C@H](CO)[C@@H](O)[C@@H]1O [Fludarabine, fludarabine], the Stat5 activity (Stat5) is listed as “not affecting” and the “Stat1 phosphorylation and activation” value (Stat1) is listed as “inhibit”.
With Nc1nc2c(ncn2[C@@H]2O[C@H](COP(=O)(O)O)[C@@H](O)[C@H]2O)c(=O)[nH]1 [GMP] the “effect” value (Stat5a/b; [1]) was “no effect”.
In the case of Nc1ncnc2c1ncn2[C@@H]1O[C@@H]2COP(=O)(O)O[C@H]2[C@H]1O [cyclic AMP], the “effect” value (Stat5a/b) is reported as “no effect”.
